Source: PubChem BioAssay (NCI)
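How tested: cells in 96-well plates exposed to compound for 48 hours at five concentrations. Abbreviation: GI50, concentration required for 50% inhibition of growth. The concentration for full growth arrest is given as TGI.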

Tests used:
Experiment in all cases: DTP human tumour cell line panel, 48 h
DU-145 prostate = tested on: DU-145 prostate
HOP-62 NSCLC = tested on: HOP-62 NSCLC
IGROV1 ovarian = tested on: IGROV1 ovarian
MOLT-4 leukemia = tested on: MOLT-4 leukemia
SF-268 CNS = tested on: SF-268 CNS
SK-OV-3 ovarian = tested on: SK-OV-3 ovarian
SN12C renal = tested on: SN12C renal
SNB-19 CNS = tested on: SNB-19 CNS
OVCAR-4 ovarian = tested on: OVCAR-4 ovarian
U251 CNS = tested on: U251 CNS

Row | Structure (SMILES) | TGI (DU-145 prostate) | TGI (HOP-62 NSCLC) | TGI (IGROV1 ovarian) | TGI (MOLT-4 leukemia) | TGI (SF-268 CNS) | TGI (SK-OV-3 ovarian) | TGI (SN12C renal) | TGI (SNB-19 CNS) | GI50 (DU-145 prostate) | GI50 (HOP-62 NSCLC) | GI50 (MOLT-4 leukemia) | GI50 (OVCAR-4 ovarian) | TGI (OVCAR-4 ovarian) | GI50 (SF-268 CNS) | GI50 (SK-OV-3 ovarian) | GI50 (SN12C renal) | GI50 (SNB-19 CNS) | GI50 (U251 CNS) | TGI (U251 CNS) | GI50 (IGROV1 ovarian)
1 | O=S(=O)(NC1CCCCC1)c1ccc2c(c1)OCCOCCOCCOCCO2 | > 100 µM | > 100 µM | > 100 µM | > 100 µM | > 100 µM | > 100 µM | > 100 µM | > 100 µM |  |  |  |  |  |  |  |  |  |  |  | 
2 | CCCCCCCCCCCC1=NC(C)(C)CN1C(C)(C)CO | 15.3 µM | 9.53 µM |  | 8.66 µM | 11.3 µM | 12.4 µM | 17.5 µM | 20.2 µM | 3.12 µM | 2.72 µM | 2.79 µM | 4.61 µM | 15.8 µM | 2.35 µM | 3.8 µM | 4.31 µM | 5.15 µM | 1.9 µM | 4.77 µM | 
3 | Cc1ccc(/C=C(\C#N)c2cc3ccccc3n2C)cc1 | > 100 µM | > 100 µM | > 100 µM | > 100 µM | > 100 µM | > 100 µM | > 100 µM | > 100 µM | 0.469 µM | 0.474 µM | 0.467 µM |  |  | 8.27 µM | > 100 µM | 0.614 µM | 0.414 µM | 0.406 µM | > 100 µM | 0.544 µM
4 | COc1ccc2c(c1)[n+](=O)c(C(=O)c1cccs1)c(C(F)(F)F)n2[O-] | 12.7 µM | > 50 µM |  | > 50 µM | 27.4 µM | > 50 µM | 10.4 µM | > 50 µM | 2.57 µM | 12.1 µM | 24.9 µM | 16.8 µM | > 50 µM | 3.94 µM | 6.41 µM | 2.18 µM | 10.7 µM | 10.3 µM | > 50 µM | 
5 | O=C(/C=C(\O)C(=O)O)/C=C(\O)c1ccccc1 |  | > 76.2 µM | > 100 µM | > 100 µM | > 100 µM | > 100 µM | > 100 µM | > 100 µM |  | > 1 µM | > 1 µM | > 1 µM | > 100 µM | > 1 µM | > 1 µM | > 1 µM | > 1 µM | > 1 µM | > 100 µM | > 1 µM
6 | O=c1cc(-c2ccccn2)[nH]c2cccc(F)c12 |  | > 100 µM | > 100 µM | > 100 µM |  | > 100 µM | > 100 µM | > 100 µM |  |  |  |  | > 100 µM |  |  |  |  |  |  | 
7 | COc1ccc2c(c1)/C(=C\c1ccncc1)C(=O)N2 | 34.3 µM | 41 µM | 9.37 µM |  | 37.3 µM | 79.9 µM | 23.7 µM | 61.1 µM | 14.2 µM | 21.8 µM |  |  |  | 5.07 µM | 19.5 µM | 10.3 µM | 19.4 µM | 4.32 µM | 23.1 µM | 4.15 µM
8 | COc1cc(CNc2nc3c(N)cc(C(F)(F)F)cc3nc2-c2ccccc2)cc(OC)c1OC |  | > 100 µM | > 100 µM | > 100 µM | > 100 µM | > 100 µM | > 100 µM | > 100 µM |  |  | > 100 µM |  | > 100 µM |  | > 100 µM |  | > 100 µM |  | > 100 µM | > 100 µM
9 | C=C1CC(CC)(CCN2C(=O)c3ccccc3C2=O)OC1=O (stereo not drawn) |  | > 100 µM | > 100 µM | > 100 µM | 21.4 µM |  | 45.5 µM |  |  |  |  |  | 27.8 µM |  |  |  |  |  |  | 
10 | COc1ccccc1N=Nc1c(-c2ccccc2)nn(C(=O)CC(=O)Nc2cccc(C)c2)c1-c1ccccc1 |  | > 100 µM | > 100 µM | 50.6 µM | > 100 µM |  | > 100 µM | > 100 µM |  |  |  |  | > 100 µM |  |  |  |  |  | > 100 µM | 
11 | C=CCn1c(=S)sc2c(C(=O)OCC)c3c(C)cc(C)cn3c2c1=O |  | > 100 µM | > 100 µM | > 100 µM | > 100 µM | > 100 µM | > 100 µM | > 100 µM |  |  |  |  |  |  |  |  |  |  | > 100 µM | 
12 | CC(C)N(C(=O)c1cccc(C(=O)N(C(C)C)C(C)C)c1)C(C)C |  | > 100 µM | > 100 µM | > 100 µM | > 100 µM | > 100 µM | > 100 µM | > 100 µM |  |  |  |  | > 100 µM |  |  |  |  |  | > 100 µM | 
13 | N#C/C(=C1\SCC(=O)N1c1ccccc1)c1nc2ccccc2[nH]1 |  | > 100 µM | > 100 µM | > 100 µM | > 100 µM | > 100 µM | > 100 µM | > 100 µM |  |  |  |  | > 100 µM |  |  |  |  |  | > 100 µM | 
14 | COC(=O)CCC(NC(=S)N/N=C(\C)c1ccc[nH]1)C(=O)OC (stereo not drawn) |  | > 100 µM | > 100 µM | > 100 µM | > 100 µM | > 100 µM | > 100 µM | > 100 µM |  |  |  |  | > 100 µM |  |  |  |  |  | > 100 µM | 
15 | O=c1cccccc1[O-].O=c1cccccc1[O-].O=c1cccccc1[O-].[Eu+3] |  | 90.2 µM | > 100 µM | > 100 µM | > 100 µM | > 100 µM | > 100 µM | > 100 µM |  | 24.9 µM |  |  | > 100 µM |  |  | 56.6 µM |  | 26.9 µM | > 100 µM | 
16 | Cc1cn2c(/C=C3/C(=O)Nc4c3ccc3ccccc43)c(C(F)(F)F)nc2s1 | > 100 µM | 93.1 µM |  | > 100 µM | > 100 µM | 69.3 µM | > 100 µM | > 100 µM | 1.67 µM | 0.586 µM | 2.7 µM | 3.63 µM | > 100 µM | 3.22 µM | 1.25 µM | 4.75 µM | 2.97 µM | 2.12 µM | > 100 µM | 
17 | [N-]=[N+]=NC(c1cn(C2CC(O)C(CO)O2)c(=O)[nH]c1=O)C(Cl)Br (stereo not drawn) |  |  |  | > 100 µM |  |  | > 100 µM | > 100 µM |  |  |  |  |  |  |  |  |  |  | > 100 µM | 
18 | Cc1c(C(=O)C/C(=N/NC(=O)c2ccccc2)C(=O)Nc2ccc(Cl)cc2)[n+](=O)c2ccccc2n1[O-] |  | > 100 µM | > 100 µM | > 100 µM | > 100 µM | > 100 µM | > 100 µM | > 100 µM |  |  |  |  | > 100 µM |  |  |  |  |  | > 100 µM | 
